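1) Cells in 96-well plates. 2) Compound, 48 h, 5 concentrations. 3) Linear interpolation between surrounding doses. 4) Unreached endpoint = highest concentration. Abbreviation: GI50, concentration required for 50% inhibition of growth. TGI denotes the concentration required for complete inhibition of growth.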
Columns and labels:
Test in all cases: NCI-60 cell line screen, 48 h
HOP-92 NSCLC = system: HOP-92 NSCLC
SF-268 CNS = system: SF-268 CNS
KM12 colon = system: KM12 colon
HT29 colon = system: HT29 colon
TK-10 renal = system: TK-10 renal
HCC-2998 colon = system: HCC-2998 colon
SNB-19 CNS = system: SNB-19 CNS
UACC-62 melanoma = system: UACC-62 melanoma
BT-549 breast = system: BT-549 breast
CAKI-1 renal = system: CAKI-1 renal
SN12C renal = system: SN12C renal
K-562 leukemia = system: K-562 leukemia
U251 CNS = system: U251 CNS
HL-60(TB) leukemia = system: HL-60(TB) leukemia
RPMI-8226 leukemia = system: RPMI-8226 leukemia
SNB-75 CNS = system: SNB-75 CNS
M14 melanoma = system: M14 melanoma
SK-MEL-2 melanoma = system: SK-MEL-2 melanoma
MALME-3M melanoma = system: MALME-3M melanoma
NCI-H23 lung = system: NCI-H23 lung
SF-295 CNS = system: SF-295 CNS
COLO 205 colon = system: COLO 205 colon
HOP-62 NSCLC = system: HOP-62 NSCLC
SK-OV-3 ovarian = system: SK-OV-3 ovarian
SK-MEL-5 melanoma = system: SK-MEL-5 melanoma
EKVX NSCLC = system: EKVX NSCLC
ACHN renal = system: ACHN renal
A549 NSCLC = system: A549 NSCLC
MOLT-4 leukemia = system: MOLT-4 leukemia
MCF7 breast = system: MCF7 breast
HS 578T breast = system: HS 578T breast
A498 renal = system: A498 renal
OVCAR-4 ovarian = system: OVCAR-4 ovarian
MDA-MB-231 breast = system: MDA-MB-231 breast
RXF 393 renal = system: RXF 393 renal
NCI-H522 lung = system: NCI-H522 lung
SR leukemia = system: SR leukemia
OVCAR-8 ovarian = system: OVCAR-8 ovarian
SK-MEL-28 melanoma = system: SK-MEL-28 melanoma
SF-539 CNS = system: SF-539 CNS
SW-620 colon = system: SW-620 colon
OVCAR-3 ovarian = system: OVCAR-3 ovarian
T-47D breast = system: T-47D breast
PC-3 prostate = system: PC-3 prostate
NCI/ADR-RES ovarian = system: NCI/ADR-RES ovarian
786-0 renal = system: 786-0 renal
MDA-MB-435 = system: MDA-MB-435
UACC-257 melanoma = system: UACC-257 melanoma
DU-145 prostate = system: DU-145 prostate
NCI-H460 lung = system: NCI-H460 lung
LOX IMVI melanoma = system: LOX IMVI melanoma
HCT-116 colon = system: HCT-116 colon
NCI-H226 lung = system: NCI-H226 lung
HCT-15 colon = system: HCT-15 colon
UO-31 renal = system: UO-31 renal
OVCAR-5 ovarian = system: OVCAR-5 ovarian
IGROV1 ovarian = system: IGROV1 ovarian
CCRF-CEM leukemia = system: CCRF-CEM leukemia

## CCCN(CCC)c1ccc(CO)c(Cl)c1
HOP-92 NSCLC
  GI50: 9.43 µM
  TGI: 31.2 µM
SF-268 CNS
  GI50: 47.3 µM
  TGI: > 100 µM
KM12 colon
  GI50: 35 µM
  TGI: > 100 µM
HT29 colon
  GI50: 9.75 µM
  TGI: > 52.4 µM
TK-10 renal
  GI50: 223 nM
  TGI: 663 nM
HCC-2998 colon
  GI50: 13.5 µM
  TGI: 48.2 µM
SNB-19 CNS
  GI50: > 63.8 µM
  TGI: > 100 µM
UACC-62 melanoma
  GI50: 485 nM
  TGI: 4.79 µM
BT-549 breast
  GI50: 22 µM
  TGI: > 60.2 µM
CAKI-1 renal
  GI50: 5.77 µM
  TGI: 50.6 µM
SN12C renal
  GI50: 39.2 µM
  TGI: > 100 µM
K-562 leukemia
  GI50: 6.21 µM
  TGI: 37.7 µM
U251 CNS
  GI50: 10.3 µM
  TGI: > 100 µM
HL-60(TB) leukemia
  GI50: 19.5 µM
  TGI: 44.6 µM
RPMI-8226 leukemia
  GI50: 5.93 µM
  TGI: 28.9 µM
SNB-75 CNS
  GI50: 25.8 µM
  TGI: > 96.7 µM
M14 melanoma
  GI50: 37.5 µM
  TGI: 97.4 µM
SK-MEL-2 melanoma
  GI50: 9.47 µM
  TGI: 33.9 µM
MALME-3M melanoma
  GI50: 29.1 µM
  TGI: > 78.5 µM
NCI-H23 lung
  GI50: 23.2 µM
  TGI: > 100 µM
SF-295 CNS
  GI50: 5.45 µM
  TGI: > 78.9 µM
COLO 205 colon
  GI50: 3.5 µM
  TGI: 10.1 µM
HOP-62 NSCLC
  GI50: 8.25 µM
  TGI: > 100 µM
SK-OV-3 ovarian
  GI50: 31.3 µM
  TGI: > 100 µM
SK-MEL-5 melanoma
  GI50: 12.9 µM
  TGI: 27.3 µM
EKVX NSCLC
  GI50: 18.2 µM
  TGI: 59 µM
ACHN renal
  GI50: 38.5 µM
  TGI: > 100 µM
A549 NSCLC
  GI50: 7.2 µM
  TGI: > 63 µM
MOLT-4 leukemia
  GI50: 23.3 µM
  TGI: 62.6 µM
MCF7 breast
  GI50: 1230 nM
  TGI: 33 µM
HS 578T breast
  GI50: 25 µM
  TGI: > 91.9 µM
A498 renal
  GI50: 117 nM
  TGI: 253 nM
OVCAR-4 ovarian
  GI50: 1210 nM
  TGI: 7.79 µM
MDA-MB-231 breast
  GI50: 31.6 µM
  TGI: > 68.4 µM
RXF 393 renal
  GI50: 7.37 µM
  TGI: 29.5 µM
NCI-H522 lung
  GI50: 16.4 µM
  TGI: 38.9 µM
SR leukemia
  GI50: 19.3 µM
  TGI: 45.9 µM
OVCAR-8 ovarian
  GI50: 34.9 µM
  TGI: > 100 µM
SK-MEL-28 melanoma
  GI50: 42.5 µM
  TGI: > 100 µM
SF-539 CNS
  GI50: 40.2 µM
  TGI: > 100 µM
SW-620 colon
  GI50: 6.41 µM
  TGI: > 100 µM
OVCAR-3 ovarian
  GI50: 1620 nM
  TGI: 5.07 µM
T-47D breast
  GI50: 459 nM
  TGI: 2910 nM
PC-3 prostate
  GI50: 22.8 µM
  TGI: 89.6 µM
NCI/ADR-RES ovarian
  GI50: 23.6 µM
  TGI: > 89.7 µM
786-0 renal
  GI50: 16.8 µM
  TGI: 45.6 µM
MDA-MB-435
  GI50: 37.1 µM
  TGI: > 100 µM
UACC-257 melanoma
  GI50: 352 nM
  TGI: 1490 nM
DU-145 prostate
  GI50: 52 µM
  TGI: > 100 µM
NCI-H460 lung
  GI50: 2130 nM
  TGI: 32.1 µM
LOX IMVI melanoma
  GI50: 30.4 µM
  TGI: > 100 µM
HCT-116 colon
  GI50: 440 nM
  TGI: 7.88 µM
NCI-H226 lung
  GI50: 166 nM
  TGI: 419 nM
HCT-15 colon
  GI50: 20.4 µM
  TGI: > 80.9 µM
UO-31 renal
  GI50: 35.4 µM
  TGI: > 100 µM
OVCAR-5 ovarian
  GI50: 257 nM
  TGI: 718 nM
IGROV1 ovarian
  GI50: 401 nM
  TGI: 2410 nM
CCRF-CEM leukemia
  GI50: 17.4 µM
  TGI: 51.7 µM

— PubChem BioAssay (NCI)
